Data on six compounds can be found in patent US6008239A, “Triazole derivative or salt thereof” (SSP Co., Ltd., priority 1997, dated 1999).

In brackets after ≈: the same amount, converted by molar mass.

The subject of one test is C. albicans ATCC 44859. Kind of test: Antifungal Activity Against Candida albicans (In vitro). To be noted: ATCC44859, MEM + 10% fetal bovine serum, 37° C., 24 hours, CO2 incubator, read-out: Terminal point (minimum medicament concentration permitting apparent suppression of mycerial type growth). In kind it is cell-based. How it is done:
Test 1: Antifungal Activity Against Candida albicans (In vitro)
They were incubated at 37° C. for 24 hours in a CO2 gas incubator. After incubation, a morphological change of C. albicans was observed under an inverted microscope. The minimum medicament concentration permitting the apparent suppression of mycerial type growth compared with that of a medicament-free control was determined as a terminal point (ng/ml).

The test system of a further test is A. fumigatus IFM 40808. The experiment in a line: Antifungal Activity Against Aspergillus fumigatus (In vitro). In kind it is cell-based. As to conditions: IFM40808, RPMI 1640 with 0.165M MOPS, pH 7, 35° C., 24 hours. The method, then: Test 2: Antifungal Activity Against Aspergillus fumigatus (In vitro)
(§1) They were incubated at 35° C. for 24 hours. After incubation, the minimum medicament concentration permitting the apparent suppression of mycerial type growth compared with that of a medicament-free control was determined as an MIC value (μg/ml).

Another test has as its system A. flavus IFM 41935. The experiment in a line: Antifungal Activity Against Aspergillus flavus (In vitro). It counts as cell-based. As to conditions: IFM41935, RPMI 1640 with 0.165M MOPS, pH 7, 35° C., 24 hours. The method, then:
Test 3: Antifungal Activity Against Aspergillus flavus (In vitro)
as §1

A further test relates to C. albicans IFM 40009. Kind of test: Antifungal Activity Against Candida albicans (In vivo), survival of infected mice. Set-up: species or system Candida albicans in male ICR (CRJ: CD-1) mice. As to conditions: i.v. C. albicans infection, oral 1.25 mg/kg, four times in total; for Survival days: 14 days observation, Kaplan-Meier (Cox mantel test), ***: p < 0.001, control 4.1; for Survival mice on Day 14: survivors/total on day 14, control 0/10. How it is done: Test 4: Antifungal Activity Against Candida albicans (In vivo)
After 4-week-old, male, ICR (CRJ: CD-1) mice were fasted for 6 hours, C. albicans IFM 40009 was inoculated to a tail vein of each of the mice to give an amount of 3.0×10^6 cells/mouse, whereby infection was caused. A control group consisted of 10 mice, while a medicament-administered group consisted of 5 mice. The medicament was orally administered one hour after the inoculation of the fungus and then consecutively once a day 24 hours after the inoculation, four times in total, at 1.25 mg/kg each. The survival condition during 14 days after the infection was compared. In addition, the survival days of the control group and the medicament-administered group were detected by the Kaplan-Meier method (Cox mantel test).

With `COCCSC(F)(F)C(Cn1cncn1)(OC)c1ccc(F)cc1F` (stereo not drawn) [Example 1, 1-{2-(2,4-difluorophenyl)-3,3-difluoro-2-methoxy-3-[(2-methoxyethyl)thio]propyl}-1H-1,2,4-triazole], the MIC in the test on C. albicans ATCC 44859 was 0.0625 µg/mL; in the test with A. fumigatus IFM 40808, 64 µg/mL (≈ 169 µM); in the test on A. flavus IFM 41935 it was greater than 64 µg/mL.
For the compound `COC(Cn1cncn1)(c1ccc(F)cc1F)C(F)(F)S(=O)(=O)CCOC(C)=O` (stereo not drawn) [Example 12, 2-{[2-(2,4-Difluorophenyl)-1,1-difluoro-2-methoxy-3-(1H-1,2,4-triazol-1-yl)propyl]sulfonyl}ethyl acetate], in the test on C. albicans IFM 40009, the Survival days worked out at 14.0 days and the “Survival mice on Day 14” value is 4/5.
In the same order, the values of `CCOC(Cn1cncn1)(c1ccc(F)cc1F)C(F)(F)S(=O)(=O)CCO` (stereo not drawn) [Example 10, 2-{[2-(2,4-Difluorophenyl)-2-ethoxy-1,1-difluoro-3-(1H-1,2,4-triazol-1-yl)propyl]sulfonyl}-1-ethanol] are 13.4 days and 4/5.
In the same order, the values of `COC(Cn1cncn1)(c1ccc(F)cc1F)C(F)(F)S(=O)(=O)CCO` (stereo not drawn) [Example 9, 2-{[2-(2,4-Difluorophenyl)-1,1-difluoro-2-methoxy-3-(1H-1,2,4-triazol-1-yl)propyl]sulfonyl}-1-ethanol] are 14.0 days and 5/5.
`COCCS(=O)(=O)C(F)(F)C(Cn1cncn1)(OC)c1ccc(F)cc1F` (stereo not drawn) [Example 7, 1-{2-(2,4-difluorophenyl)-3,3-difluoro-2-methoxy-3-[(2-methoxyethyl)sulfonyl]propyl}-1H-1,2,4-triazole]: in the test on C. albicans IFM 40009, the Survival days is reported as 14.0 days and the “Survival mice on Day 14” value is given as 5/5.
Consider `OC(Cn1cncn1)(Cn1cncn1)c1ccc(F)cc1F` [Fluconazole, reference compound], for which, in the test with A. fumigatus IFM 40808, the MIC was greater than 128 µg/mL. The MIC against A. flavus IFM 41935 is greater than 128 µg/mL. In the test with C. albicans IFM 40009, the Survival days amounted to 9.6 days and the “Survival mice on Day 14” value is listed as 0/5.
